Laboratory results taken from ChEMBL document CHEMBL4118070, “Synthesis, antimicrobial, antiquorum-sensing and antitumor activities of new benzimidazole analogs” (Eur J Med Chem, 2017).
pIC50: −log10 of the molar value. ≈ marks a conversion by molar mass, not a printed value. Calls of active or inactive are those of the source. No cut-off for these calls is given here.

What was measured:
Candida albicans = experiment: Antifungal activity against Candida albicans after 48 hrs by two-fold serial dilution method; assay type: functional
Staphylococcus aureus = experiment: Antibacterial activity against Staphylococcus aureus ATCC 29213 after 24 hrs by two-fold serial dilution method; assay type: functional; details: ATCC 29213, 24 h
Aspergillus fumigatus = experiment: Antifungal activity against Aspergillus fumigatus 293 after 48 hrs by two-fold serial dilution method; assay type: functional; details: Af293, 48 h
[1] = test system: Chromobacterium violaceum; experiment: Inhibition of quorum sensing system in Chromobacterium violaceum ATCC 12472 assessed as diameter of violacein pigment inhibition at 5 mg/ml after 48 hrs
HCT-116 = experiment: Cytotoxicity against human HCT116 cells assessed as decrease in cell viability after 48 hrs by MTT assay; assay type: functional, cell-based; details: HCT-116, 48 h
MCF7 = experiment: Cytotoxicity against human MCF7 cells assessed as decrease in cell viability after 48 hrs by MTT assay; assay type: functional, cell-based; details: MCF7, 48 h
Bacillus cereus = experiment: Antibacterial activity against Bacillus cereus UW 85 after 24 hrs by two-fold serial dilution method; assay type: functional; details: UW 85, 24 h
HepG2 = experiment: Cytotoxicity against human HepG2 cells assessed as decrease in cell viability after 48 hrs by MTT assay; assay type: functional, cell-based; details: HepG2, 48 h
Escherichia coli = experiment: Antibacterial activity against Escherichia coli ATCC 12435 after 24 hrs by two-fold serial dilution method; assay type: functional; details: ATCC 12435, 24 h
[2] = Displacement of methyl green from DNA (unknown origin) incubated in dark for 24 hrs by colorimetric method
WI-38 = experiment: Cytotoxicity against human W138 cells assessed as decrease in cell viability after 48 hrs by MTT assay; assay type: cell-based; details: WI-38, 48 h
Ehrlich [3] = experiment: Antitumor activity against mouse EAC allografted in Swiss mouse assessed as RBC count in blood at 0.5 mg administered 9 days (reference value: 3.69 10^6/mm3); assay type: functional
Ehrlich [4] = experiment: Antitumor activity against mouse EAC allografted in Swiss mouse assessed as increase in mouse life span at 0.5 mg administered 9 days relative to control; assay type: functional
Ehrlich [5] = experiment: Antitumor activity against mouse EAC allografted in Swiss mouse assessed as decrease in viable tumor cell count at 0.5 mg administered 9 days by trypan blue staining method; assay type: functional
Ehrlich [6] = experiment: Antitumor activity against mouse EAC allografted in Swiss mouse assessed as hemoglobin count in blood at 0.5 mg administered 9 days (reference value: 8.73 g/dl); assay type: functional
Ehrlich [7] = experiment: Antitumor activity against mouse EAC allografted in Swiss mouse assessed as mean mouse survival time at 0.5 mg administered 9 days (reference value: 14.5 days); assay type: functional
Ehrlich [8] = experiment: Antitumor activity against mouse EAC allografted in Swiss mouse assessed as WBC count in blood at 0.5 mg administered 9 days (reference value: 23.96 10^3/mm3); assay type: functional
Ehrlich [9] = experiment: Antitumor activity against mouse EAC allografted in Swiss mouse assessed as tumor volume at 0.5 mg administered 9 days (reference value: 9.85 ml); assay type: functional

SMILES | MIC (Candida albicans) [µM] | MIC (Staphylococcus aureus) | MIC (Aspergillus fumigatus) | Activity [1] [mm] | pIC50 (HCT-116) | pIC50 (MCF7) | MIC (Bacillus cereus) | pIC50 (HepG2) | MIC (Escherichia coli) | pIC50 [2] | pIC50 (WI-38) | Activity (Ehrlich [3]) [×10⁶ /mm3] | ILS (Ehrlich [4]) [%] | Activity (Ehrlich [5]) | Activity (Ehrlich [6]) [g/dL] | MST (Ehrlich [7]) [days] | Activity (Ehrlich [8]) [×10³ /mm3] | Activity (Ehrlich [9]) [mL]
CCOC(=O)CSCc1nc2cc([N+](=O)[O-])ccc2[nH]1 | 2120 (≈ 625 µg/mL) | 2120 µM | 2120 µM | < 2 | < 4.00 | < 4.00 | 2120 µM | < 4.00 | 4230 µM |  |  |  |  |  |  |  |  | 
O=[N+]([O-])c1ccc2[nH]c(CSCc3nc4ccccc4[nH]3)nc2c1 | 3680 (≈ 1250 µg/mL) | 3680 µM | > 2500 µg/mL | 4 | 5.10 | 4.88 | > 2500 µg/mL | 4.95 | > 2500 µg/mL |  |  |  |  |  |  |  |  | 
COc1cccc2c1C(=O)c1c(O)c3c(c(O)c1C2=O)C[C@@](O)(C(=O)CO)C[C@@H]3O[C@H]1C[C@H](N)[C@H](O)[C@H](C)O1 [DOXORUBICIN] |  |  |  |  |  |  |  |  |  | 4.49 |  |  |  |  |  |  |  | 
O=C(CSCc1nc2cc([N+](=O)[O-])ccc2[nH]1)N/N=C/c1ccc(Cl)cc1 | 774 (≈ 312 µg/mL) | > 2500 µg/mL | 1550 µM | < 2 | 4.81 | 4.86 | > 2500 µg/mL | 4.25 | > 2500 µg/mL |  |  |  |  |  |  |  |  | 
O=[N+]([O-])c1ccc2[nH]c(CSCc3nc4cc([N+](=O)[O-])ccc4[nH]3)nc2c1 | 406 (≈ 156 µg/mL) | 406 µM | 406 µM | 11 | 5.62 | 5.76 | 813 µM | 5.65 | 1630 µM | 4.43 | 4.60 | 5.45 | 224.14 | Active | 13.18 | 47 | 7.23 | 2.22
O=C(CSCc1nc2cc([N+](=O)[O-])ccc2[nH]1)c1ccc(Cl)cc1 | 864 (≈ 312 µg/mL) | 864 µM | 3450 µM | < 2 | 5.65 | 5.55 | 6910 µM | 5.58 | > 2500 µg/mL | 4.20 | 4.47 | 4.87 | 170.34 | Active | 12.32 | 39.2 | 9.1 | 2.83
O=C(CSCc1nc2cc([N+](=O)[O-])ccc2[nH]1)c1ccc(Br)cc1 | 385 (≈ 156 µg/mL) | 192 µM | 385 µM | < 2 | 5.75 | 5.81 | 769 µM | 5.70 | > 2500 µg/mL | 4.46 | 4.50 | 5.14 | 212.42 | Active | 12.92 | 45.3 | 7.41 | 2.41
NNC(=O)CSCc1nc2cc([N+](=O)[O-])ccc2[nH]1 | 1110 (≈ 312 µg/mL) | > 2500 µg/mL | 4440 µM | < 2 | 5.27 | 4.88 | > 2500 µg/mL | 4.73 | > 2500 µg/mL | 4.06 |  |  |  |  |  |  |  | 
CCOC(=O)c1c(NC(=O)CSCc2nc3cc([N+](=O)[O-])ccc3[nH]2)sc2c1CCCCC2 | 1280 (≈ 625 µg/mL) | 2560 µM | 2560 µM | < 2 | 5.12 | 4.99 | 2560 µM | 5.13 | 2560 µM |  |  |  |  |  |  |  |  | 
N#Cc1sc(Nc2ccccc2)nc1NC(=O)CSCc1nc2cc([N+](=O)[O-])ccc2[nH]1 | 2690 (≈ 1250 µg/mL) | 5370 µM | 5370 µM | < 2 | 5.07 | 4.95 | 5370 µM | 5.02 | > 2500 µg/mL |  |  |  |  |  |  |  |  | 
O=C(CSCc1nc2cc([N+](=O)[O-])ccc2[nH]1)c1ccccc1 | 1910 (≈ 625 µg/mL) | 3820 µM | 7640 µM | < 2 | 4.91 | 4.73 | > 2500 µg/mL | 4.79 | > 2500 µg/mL |  |  |  |  |  |  |  |  | 
CC1(C)S[C@@H]2[C@H](NC(=O)[C@H](N)c3ccccc3)C(=O)N2[C@H]1C(=O)O [AMPICILLIN] |  | 894 µM |  |  |  |  | 3580 µM |  | 55.9 µM |  |  |  |  |  |  |  |  | 
N#CCSCc1nc2cc([N+](=O)[O-])ccc2[nH]1 | 5040 (≈ 1250 µg/mL) | > 2500 µg/mL | 5040 µM | < 2 | 4.55 | 4.56 | 5040 µM | 4.51 | > 2500 µg/mL |  |  |  |  |  |  |  |  | 
NC(=S)NNC(=O)CSCc1nc2cc([N+](=O)[O-])ccc2[nH]1 | 459 (≈ 156 µg/mL) | 918 µM | 1840 µM | 11 | 5.33 | 5.12 | 3670 µM | 5.15 | > 2500 µg/mL | 4.18 |  |  |  |  |  |  |  | 
Oc1cc(O)c2c(c1)O[C@H](c1ccc(O)c(O)c1)[C@@H](O)C2 |  |  |  | 2 |  |  |  |  |  |  |  |  |  |  |  |  |  | 
O=c1[nH]cc(F)c(=O)[nH]1 [FLUOROURACIL] |  |  |  |  | 5.40 | 5.37 |  | 5.28 |  |  | 5.24 | 5.21 | 237.93 |  | 12.96 | 49 | 8.86 | 1.6
O=C(CSCc1nc2cc([N+](=O)[O-])ccc2[nH]1)NNC(=S)Nc1ccccc1 | 375 (≈ 156 µg/mL) | > 2500 µg/mL | 750 µM | < 2 | 4.54 | < 4.00 | > 2500 µg/mL | < 4.00 | > 2500 µg/mL | 4.28 |  |  |  |  |  |  |  | 
CC1=NN(C(=O)CSCc2nc3cc([N+](=O)[O-])ccc3[nH]2)C(=O)C1 | 7200 (≈ 2500 µg/mL) | > 2500 µg/mL | > 2500 µg/mL | < 2 | 5.27 | 5.09 | > 2500 µg/mL | 5.13 | > 2500 µg/mL |  |  |  |  |  |  |  |  | 
NC(=O)CSCc1nc2cc([N+](=O)[O-])ccc2[nH]1 | 147 (≈ 39.1 µg/mL) | 147 µM | 293 µM | 9 | 4.76 | 4.71 | 293 µM | 4.57 | 587 µM | 4.38 |  |  |  |  |  |  |  | 
OC(Cn1cncn1)(Cn1cncn1)c1ccc(F)cc1F [FLUCONAZOLE] | 8160 (≈ 2500 µg/mL) |  | > 2500 µg/mL |  |  |  |  |  |  |  |  |  |  |  |  |  |  | 
